Reference: US7994209B2, “3-phenoxymethylpyrrolidine compounds” (Theravance, Inc., priority 2009, dated 2011)
pKi: −log10 of the molar value. Marks after values point to notes of the source that are not given here.

What was measured:
SERT and NET = details: cited from earlier work
hNET [1] = biological target: T1, hNET (Homo sapiens, UniProt P23975); assay: hNET membrane radioligand binding assay (3H-nisoxetine), Assay 1
hSERT [2] = biological target: T2, hSERT (Homo sapiens, UniProt P31645); assay: fluorescence-based serotonin reuptake inhibition assay (Tsuruda et al. 2010; data indicated by an asterisk); assay type: cell-based; set-up: expressed in transfected cells; host or cells: HEK-293; details: fluorescence-based assay (values with asterisk); for IC50: read-out: SERT pIC50 (converted)
hNET [3] = biological target: T1, hNET; assay: fluorescence-based norepinephrine reuptake inhibition assay (Tsuruda et al. 2010; data indicated by an asterisk); assay type: cell-based; set-up: expressed in transfected cells; host or cells: HEK-293; details: norepinephrine reuptake inhibition, fluorescence-based assay (values with asterisk); for IC50: read-out: NET pIC50 (converted)
hSERT [4] = biological target: T2, hSERT; assay: hSERT membrane radioligand binding assay (3H-citalopram), Assay 1; details: hSERT HEK-293 membranes, 1.0 nM 3H-citalopram, values given as lower bounds; for pKi: SERT pKi

T2 sequence (P31645 whole entry): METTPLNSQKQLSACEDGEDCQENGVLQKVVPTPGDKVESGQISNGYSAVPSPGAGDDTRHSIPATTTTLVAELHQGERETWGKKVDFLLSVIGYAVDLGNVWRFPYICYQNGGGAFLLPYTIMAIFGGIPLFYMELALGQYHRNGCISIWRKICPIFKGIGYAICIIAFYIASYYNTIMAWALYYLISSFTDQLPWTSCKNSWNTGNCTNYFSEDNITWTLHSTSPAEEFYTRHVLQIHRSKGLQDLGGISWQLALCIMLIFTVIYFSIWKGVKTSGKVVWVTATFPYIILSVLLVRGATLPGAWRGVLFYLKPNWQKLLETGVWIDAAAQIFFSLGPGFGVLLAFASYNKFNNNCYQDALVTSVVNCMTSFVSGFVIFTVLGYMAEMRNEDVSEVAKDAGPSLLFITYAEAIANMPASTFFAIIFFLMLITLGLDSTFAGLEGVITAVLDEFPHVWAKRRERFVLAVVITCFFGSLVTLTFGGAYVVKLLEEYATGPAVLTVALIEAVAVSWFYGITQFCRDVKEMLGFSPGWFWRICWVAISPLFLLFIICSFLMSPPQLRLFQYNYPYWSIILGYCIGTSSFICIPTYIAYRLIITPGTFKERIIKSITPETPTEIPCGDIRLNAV
T1 sequence (P23975 whole entry): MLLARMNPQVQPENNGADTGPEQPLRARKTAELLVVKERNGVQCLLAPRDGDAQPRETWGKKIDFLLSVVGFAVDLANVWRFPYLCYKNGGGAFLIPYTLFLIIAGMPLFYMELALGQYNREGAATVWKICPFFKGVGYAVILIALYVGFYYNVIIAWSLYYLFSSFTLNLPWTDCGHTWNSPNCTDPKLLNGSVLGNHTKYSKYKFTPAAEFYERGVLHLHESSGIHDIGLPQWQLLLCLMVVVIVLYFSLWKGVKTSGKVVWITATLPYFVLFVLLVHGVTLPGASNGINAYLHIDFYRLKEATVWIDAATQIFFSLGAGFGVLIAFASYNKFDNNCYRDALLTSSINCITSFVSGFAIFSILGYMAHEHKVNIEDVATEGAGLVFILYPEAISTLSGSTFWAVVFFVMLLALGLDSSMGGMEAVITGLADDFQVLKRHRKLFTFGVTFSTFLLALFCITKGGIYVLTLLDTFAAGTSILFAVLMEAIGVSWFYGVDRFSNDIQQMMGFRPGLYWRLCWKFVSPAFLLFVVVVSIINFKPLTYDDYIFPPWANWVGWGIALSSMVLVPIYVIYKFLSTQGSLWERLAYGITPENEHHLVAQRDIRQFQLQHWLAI

| pKi (hNET [1]) | IC50 (hSERT [2]) [nM] | IC50 (hNET [3]) [nM] | pKi (hSERT [4]) | Compound | selectivity (measured as pKi) for SERT over NET (SERT and NET) [fold] | other results |
| --- | --- | --- | --- | --- | --- | --- |
| – | – | – | – | CNCC[C@@H](Oc1ccccc1C)c1ccccc1 [Atomoxetine] | – | NET selective (SERT and NET; NET selectivity): 10 fold |
| ≥ 7.00 | ≤ 10 | ≤ 100 | ≥ 8.00 | Cc1cc(O[C@H](C2CC2)[C@H]2CCNC2)ccc1Cl [Example 16-95, (S)-3-[(R)-(4-Chloro-3-methylphenoxy)cyclopropylmethyl]pyrrolidine] | – | – |
| ≥ 8.00 | ≤ 10 | ≤ 10 | ≥ 8.00 | c1ccc2c(O[C@@H](C3CC3)[C@H]3CCNC3)cccc2c1 [Example 22, (S)-3-[(S)-Cyclopropyl(naphthalen-1-yloxy)methyl]pyrrolidine] | – | – |
| – | – | – | – | CNCC[C@H](Oc1cccc2ccccc12)c1cccs1 [duloxetine] | 10 | affinity for SERT relative to NET (SERT and NET; Vaishnavi et al. (2004)): higher affinity for SERT relative to NET |
| – | – | – | – | CCN(CC)C(=O)C1(c2ccccc2)CC1CN (stereo not shown) [milnacipran] | 2.5 | – |
| – | – | – | – | (S)-3-[(R)-Cyclopropyl-(2-methyl-3-vinylphenoxy)methyl]pyrrolidine [Example 23-1] | – | NET pKi (hNET [1]; hNET HEK-293 membranes, 1.0 nM 3H-nisoxetine, values given as lower bounds): ≧8.0; SERT pIC50 (hSERT [2]): ≧8.0*; NET pIC50 (hNET [3]): ≧8.0*; SERT pKi (hSERT [4]): ≧8.0 |
